Measurements published in publication PMC12543283, “TastepepAI: An artificial intelligence platform for taste peptide de novo design” (PLOS Computational Biology, 2025).
Values joined by “and” are separate entries in the source; they are usually repeats but may differ in a detail not shown here. Equal entries are not always repeated. Ends that are not written are not given here.

Tests used:
[1] = Electronic tongue analysis (Taste-Sensing System SA 402B); set-up: unit not given here; conditions: reference solution 30 mM KCl + 0.3 mM tartaric acid as baseline, first measurement excluded; for Umami: sensor AAE; for Umami / Bitter / Sweet: detection threshold 0, room temperature; for Umami / Bitter / Sour / Salty: four replicates; for Sour: detection threshold -13, room temperature; for Salty: detection threshold -6, room temperature; for Sweet: measured five times
Procedure, shortened: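 Room-temperature electronic-tongue readings with five taste probes, calibrated against a reference of 30 mM KCl and 0.3 mM tartaric acid. Samples at 0.1 mg/mL and 1.0 mg/mL were measured four times, sweetness five times, and the first run was dropped. Detection cut-offs were sour −13, salty −6, others 0.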

[2] = tested on: human bronchial epithelial cells (BEAS-2B)
[3] = tested on: human embryonic kidney cells (HEK293T)
Protocol: The cytotoxicity of 73 synthetic peptides was evaluated using four human cell lines: human pancreatic ductal epithelial cells (HPNE), human embryonic kidney cells (HEK293T), human umbilical vein endothelial cells (HUVEC), and human bronchial epithelial cells (BEAS-2B). When cell density reached 70% confluence, the complete culture medium was replaced with serum-free maintenance medium, and peptides were added at a final concentration of 100 μM for 36 h. Control groups received only serum-free maintenance medium without peptides. Cell proliferation was assessed using the CCK-8 assay kit (Solarbio, CA1210) according to the manufacturer’s instructions.

[4] = tested on: human pancreatic ductal epithelial cells (HPNE)
[5] = tested on: human umbilical vein endothelial cells (HUVEC)

| Substance | Umami ([1]; peptide 1 mg/mL) | Bitter ([1]; sensor C00, peptide 1 mg/mL) | Sour ([1]; sensor CA0, peptide 0.1 mg/mL) | Sour ([1]; sensor CA0, peptide 1 mg/mL) | Salty ([1]; sensor CT0, peptide 1 mg/mL) | Sweet ([1]; sensor GL1, peptide 0.1 mg/mL) | Sweet ([1]; sensor GL1, peptide 1 mg/mL) | Average cell viability, BEAS-2B [2] | Cell viability, BEAS-2B, Data1 [2] | Cell viability, BEAS-2B, Data2 [2] | Cell viability, BEAS-2B, Data3 [2] | Average cell viability, HEK293T [3] | Cell viability, HEK293T, Data1 [3] | Cell viability, HEK293T, Data2 [3] | Cell viability, HEK293T, Data3 [3] | Average cell viability, HPNE [4] | Cell viability, HPNE, Data1 [4] | Cell viability, HPNE, Data2 [4] | Cell viability, HPNE, Data3 [4] | Average cell viability, HUVEC [5] | also measured |
| --- | --- | --- | --- | --- | --- | --- | --- | --- | --- | --- | --- | --- | --- | --- | --- | --- | --- | --- | --- | --- | --- |
| LNGPQ [TaPep63] | -6.21 | 4.12 | -2.72 | 15.39 | 10.16 | 5.62 | -5.33 | 103.52 | 114.46 | 93.02 | 103.09 | 99.12 | 94.35 | 104.86 | 98.14 | 97.14 | 82.16 | 94.94 | 114.31 | 95.61 | Umami ([1]; peptide 0.1 mg/mL): 1.41; Bitter ([1]; sensor C00, peptide 0.1 mg/mL): 7.27; Salty ([1]; sensor CT0, peptide 0.1 mg/mL): -20.42; Cell viability, HUVEC, Data1 [5]: 91.41; Cell viability, HUVEC, Data2 [5]: 96.35; Cell viability, HUVEC, Data3 [5]: 99.07 |
| LQDVVE [TaPep24] | -3.57 | 3.73 | -4.17 | 9.09 | 4.83 | 6.22 | -4.08 | 113.59 | 103.99 | 117.45 | 119.34 | 99.02 | 102.40 | 97.85 | 96.81 | 93.71 | 94.37 | 92.98 | 93.78 | 103.54 | Cell viability, HUVEC, Data1 [5]: 91.48; Cell viability, HUVEC, Data2 [5]: 106.25; Cell viability, HUVEC, Data3 [5]: 112.88 |
| LQPDAGK [TaPep6] | -5.07 | 2.72 | -4.43 | 10.67 | 12.20 | 8.22 | -5.48 | 102.76 | 91.82 | 107.88 | 108.57 | 98.83 | 101.83 | 97.29 | 97.38 | 97.97 | 95.64 | 99.55 | 98.73 | 102.10 | Umami ([1]; peptide 0.1 mg/mL): 1.99; Bitter ([1]; sensor C00, peptide 0.1 mg/mL): 7.90; Salty ([1]; sensor CT0, peptide 0.1 mg/mL): -19.24; Cell viability, HUVEC, Data1 [5]: 91.96; Cell viability, HUVEC, Data2 [5]: 115.19; Cell viability, HUVEC, Data3 [5]: 99.15 |
| LQPSLEH [TaPep59] | -6.02 | 1.90 | -3.89 | 15.44 | 15.85 | 6.34 | -7.32 | 100.60 | 96.61 | 109.87 | 95.31 | 98.64 | 100.88 | 99.94 | 95.11 | 92.71 | 105.62 | 84.46 | 88.05 | 104.79 | Umami ([1]; peptide 0.1 mg/mL): 1.85; Bitter ([1]; sensor C00, peptide 0.1 mg/mL): 7.83; Salty ([1]; sensor CT0, peptide 0.1 mg/mL): -19.53; Cell viability, HUVEC, Data1 [5]: 97.39; Cell viability, HUVEC, Data2 [5]: 106.49; Cell viability, HUVEC, Data3 [5]: 110.48 |
| LWGPVT [TaPep72] | -4.42 | 3.83 | -4.62 | 11.06 | 7.83 | 7.58 | -5.31 | 100.50 | 118.74 | 92.32 | 90.43 | 100.76 | 102.49 | 95.02 | 104.76 | 101.26 | 115.31 | 97.84 | 90.65 | 99.47 | Umami ([1]; peptide 0.1 mg/mL): 2.15; Bitter ([1]; sensor C00, peptide 0.1 mg/mL): 7.25; Salty ([1]; sensor CT0, peptide 0.1 mg/mL): -19.66; Cell viability, HUVEC, Data1 [5]: 107.29; Cell viability, HUVEC, Data2 [5]: 101.62; Cell viability, HUVEC, Data3 [5]: 89.49 |
| NGDDEEG [TaPep7] | -5.11 | bitterness suppression and -0.45 | -2.86 | 11.92 | 9.19 | 6.98 | -6.18 | 102.56 | 94.72 | 111.17 | 101.79 | 95.11 | 96.15 | 94.73 | 94.45 | 99.30 | 92.35 | 93.04 | 112.51 | 105.24 | Umami ([1]; peptide 0.1 mg/mL): 1.28; Bitter ([1]; sensor C00, peptide 0.1 mg/mL): 7.41; Salty ([1]; sensor CT0, peptide 0.1 mg/mL): -21.22; Cell viability, HUVEC, Data1 [5]: 113.68; Cell viability, HUVEC, Data2 [5]: 110.16; Cell viability, HUVEC, Data3 [5]: 91.88 |
| NNDDEES [TaPep50] | -3.90 | 4.27 | -4.45 | 9.63 | 3.54 | 7.42 | -3.07 | 104.39 | 104.29 | 103.89 | 104.99 | 101.39 | 105.62 | 98.99 | 99.56 | 98.30 | 106.02 | 107.52 | 81.36 | 105.59 | Umami ([1]; peptide 0.1 mg/mL): 2.11; Bitter ([1]; sensor C00, peptide 0.1 mg/mL): 7.18; Salty ([1]; sensor CT0, peptide 0.1 mg/mL): -22.53; Cell viability, HUVEC, Data1 [5]: 101.94; Cell viability, HUVEC, Data2 [5]: 108.73; Cell viability, HUVEC, Data3 [5]: 106.09 |
